Source: patent publication US20070043013A1, “1,3 Disubstituted azetidine derivatives for use as ccr-3 receptor antagonists in the treatment of inflammatory and allergic diseases” (priority 2003, published 2007)

What was measured:
[1] = molecular target: histamine H1 (Homo sapiens, UniProt P35367); assay: histamine H1 antagonism
[2] = molecular target: alpha-1 adrenergic receptor; assay: alpha-1 adrenergic receptor radioligand binding assay ([125I]-HEAT, rat cerebral cortex membranes); conditions: radioligand used at 40 pM
Procedure: The inhibitory properties of agents of the invention on binding of the alpha-1 adrenergic receptor can be determined in the following assay:
Cerebral cortices from male Sprague-Dawley rats (175-200 g) are dissected and homogenised in 10 volumes of ice cold 0.32 M sucrose (containing 1 mM MgCl2 dihydrate and 1 mM K2HPO4) with a glass/Teflon homogeniser. The membranes are centrifuged at 1000×g for 15 miN, the pellet discarded and the centrifugation repeated. The supernatants are pooled and centrifuged at 18,000×g for 15 minutes. The pellet is osmotically shocked in 10 volumes of water and kept on ice for 30 minutes. The suspension is centrifuged at 39,000×g for 20 minutes, resuspended in Krebs-Henseleit buffer pH 7.4 (1.17 mM MgS04 anhydrous, 4.69 mM KCl, 0.7 mM K2HPO4 anhydrous, 0.11 M NaCl, 11 mM D-glucose and 25 mM NaHCO3) containing 20 mM Tris, and kept for 2 days at −20° C. The membranes are then thawed at 20-23° C., washed three times with Krebs-Henseleit buffer by centrifugation at 18,000×g for 15 minutes, left overnight at 4° C. and washed again three times. […]
The resulting membranes are subjected to a radioligand binding assay. […] Following drying of the plates for 3 h. at 50° C., 40 μl of Microscint 20 is added to each well, the plates incubated at room temperature for a further 20 minutes and the retained radioactivity quantified in a Packard TopCount NXT™ scintillation counter. […]

Chain of histamine H1 (P35367 whole entry): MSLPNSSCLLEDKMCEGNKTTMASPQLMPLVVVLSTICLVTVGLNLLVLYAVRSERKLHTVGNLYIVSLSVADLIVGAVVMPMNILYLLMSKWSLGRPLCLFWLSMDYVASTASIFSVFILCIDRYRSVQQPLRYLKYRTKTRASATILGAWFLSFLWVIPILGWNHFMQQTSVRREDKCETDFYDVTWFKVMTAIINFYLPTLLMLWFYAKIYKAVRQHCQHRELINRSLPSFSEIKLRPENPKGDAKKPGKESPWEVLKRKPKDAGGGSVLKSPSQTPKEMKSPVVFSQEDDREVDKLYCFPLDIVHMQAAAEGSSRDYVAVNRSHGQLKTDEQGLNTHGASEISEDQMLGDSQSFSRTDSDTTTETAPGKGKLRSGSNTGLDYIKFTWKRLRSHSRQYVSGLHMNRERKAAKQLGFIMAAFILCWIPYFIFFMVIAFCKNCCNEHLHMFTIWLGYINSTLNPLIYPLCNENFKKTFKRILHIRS

histamine H1 antagonist activity [1]	Kd [2] [nM]	SMILES
histamine H1 antagonists	–	CCc1nnc(NC(=O)N[C@@H]2CCCC[C@@H]2CN2CC(Oc3ccc(Cl)cc3)C2)s1 (racemic) [Example 31, (+/−)1-{(1R,2R)-2-[3-(4-Chloro-phenoxy)-azetidin-1-yl-methyl]-cyclohexyl}-3-(5-ethyl-[1,3,4]thiadiazol-2-yl)-urea]
histamine H1 antagonists	–	CCc1nnc(NC(=O)N[C@H](CO)CCN2CC(Sc3ccc(Cl)cc3)C2)s1 [Example 19, 1-{(S)-3-[3-(4-Chloro-phenylsulfanyl)-azetidin-1-yl]-1-hydroxymethyl-propyl}-3-(5-ethyl-[1,3,4]thiadiazol-2-yl)-urea]
–	0.0589 ± 0.0187	O=C1c2ccccc2CCC1CNCCc1ccc(O)c(I)c1 (stereo not drawn) [[^125I]-HEAT]
